Here are results for 15 molecules from patent US11028075B2, “Therapeutic compounds and methods of use thereof” (GENENTECH, INC., priority 2018, dated 2021).

Test [1] deals with T1, hNav1.7 (Homo sapiens (Human), UniProt Q15858). Briefly: Electrophysiological assay (EP), voltage clamp on Syncropatch 384PE, CHO cells stably expressing Nav1.7. It is filed as cell-based. To be noted: holding potential −50 mV, 7.5 min compound incubation, read-out: EP_SP hNav1.7 EVO IC50. An excerpt:
Example 93C. Electrophysiological Assay (EP) (In Vitro Assay)
Patch voltage clamp electrophysiology allows for the direct measurement and quantification of block of voltage-gated sodium channels (NaV's), and allows the determination of the time- and voltage-dependence of block which has been interpreted as differential binding to the resting, open, and inactivated states of the sodium channel (Hille, B., Journal of General Physiology (1977), 69: 497-515).
The following voltage clamp electrophysiology studies are performed on representative compounds using cells heterologously expressing Nav1.7 or Nav1.5 channels. cDNAsfor Nav1.7 (NM_002977) and Nav1.5 (AC137587) are stably expressed in Chinese Hamstr Ovary (CHO) cells and CHL (Chinese Hamster Lung) cells respectively. Sodium currents are measured in the whole-cell configuration using Syncropatch 384PE (Nanlon Technologies, Germany). 1NPC®-384 chips with custom medium resistance and single hole mode are used. Internal solution consists of (in mM): […], 10 […], 20 EGTA, and 10 Hepes (pH adjusted to 7.2); and external solution contains (in mM): 60 NMDG, 80 NaCl, 4 KCl, 1 MgCl2, 2 CaCl2, 2 D-Glucose monohydrate, 10 Hepes (pH adjusted to 7.4 with NaOH).
After system flushing, testing compounds are dissolved in external solution containing 0.1% Pluronic F-127. The chip is moved into the measuring head and the instrument primes the chip with external and internal solutions. 10 μl cells are added to the chip from a cell hotel, and a negative pressure of −50 mBar is applied to form a seal. Following treatment with seal enhancer solution and wash-off with external solution, negative pressure of −250 mbar is applied for 1 second to achieve the whole-cell configuration, followed by three washing steps in external solution. 20 μl of compounds is added to 40 μl in each well (1:3 dilution of compounds), and after mixing, 20 μl is removed so the volume is retained at 40 μl. After approximately 13 minutes recordings, 20 μl/well of 2 uM TTX, or 333 uM Tetracaine (for Nav1.5) is added to achieve full block.
For voltage protocol, an holding potential of −50 mV is applied during the whole experiment. A depolarizing step is applied to −10 mV for 10 ms, followed by a hyperpolarization step to −150 mV for 20 ms to allow channel recovery from inactivation. A second depolarizing step is applied from −150 mV to −10 mV for 10 ms, where currents are measured to derive blocking effects of compounds. Inhibition is determined based on 7.5 min of compound incubation.
A general note: Patch clamp records ionic current or voltage across a cell membrane.
Target sequence in this assay (Q15858 other isoform, or with tags, fused parts or gaps): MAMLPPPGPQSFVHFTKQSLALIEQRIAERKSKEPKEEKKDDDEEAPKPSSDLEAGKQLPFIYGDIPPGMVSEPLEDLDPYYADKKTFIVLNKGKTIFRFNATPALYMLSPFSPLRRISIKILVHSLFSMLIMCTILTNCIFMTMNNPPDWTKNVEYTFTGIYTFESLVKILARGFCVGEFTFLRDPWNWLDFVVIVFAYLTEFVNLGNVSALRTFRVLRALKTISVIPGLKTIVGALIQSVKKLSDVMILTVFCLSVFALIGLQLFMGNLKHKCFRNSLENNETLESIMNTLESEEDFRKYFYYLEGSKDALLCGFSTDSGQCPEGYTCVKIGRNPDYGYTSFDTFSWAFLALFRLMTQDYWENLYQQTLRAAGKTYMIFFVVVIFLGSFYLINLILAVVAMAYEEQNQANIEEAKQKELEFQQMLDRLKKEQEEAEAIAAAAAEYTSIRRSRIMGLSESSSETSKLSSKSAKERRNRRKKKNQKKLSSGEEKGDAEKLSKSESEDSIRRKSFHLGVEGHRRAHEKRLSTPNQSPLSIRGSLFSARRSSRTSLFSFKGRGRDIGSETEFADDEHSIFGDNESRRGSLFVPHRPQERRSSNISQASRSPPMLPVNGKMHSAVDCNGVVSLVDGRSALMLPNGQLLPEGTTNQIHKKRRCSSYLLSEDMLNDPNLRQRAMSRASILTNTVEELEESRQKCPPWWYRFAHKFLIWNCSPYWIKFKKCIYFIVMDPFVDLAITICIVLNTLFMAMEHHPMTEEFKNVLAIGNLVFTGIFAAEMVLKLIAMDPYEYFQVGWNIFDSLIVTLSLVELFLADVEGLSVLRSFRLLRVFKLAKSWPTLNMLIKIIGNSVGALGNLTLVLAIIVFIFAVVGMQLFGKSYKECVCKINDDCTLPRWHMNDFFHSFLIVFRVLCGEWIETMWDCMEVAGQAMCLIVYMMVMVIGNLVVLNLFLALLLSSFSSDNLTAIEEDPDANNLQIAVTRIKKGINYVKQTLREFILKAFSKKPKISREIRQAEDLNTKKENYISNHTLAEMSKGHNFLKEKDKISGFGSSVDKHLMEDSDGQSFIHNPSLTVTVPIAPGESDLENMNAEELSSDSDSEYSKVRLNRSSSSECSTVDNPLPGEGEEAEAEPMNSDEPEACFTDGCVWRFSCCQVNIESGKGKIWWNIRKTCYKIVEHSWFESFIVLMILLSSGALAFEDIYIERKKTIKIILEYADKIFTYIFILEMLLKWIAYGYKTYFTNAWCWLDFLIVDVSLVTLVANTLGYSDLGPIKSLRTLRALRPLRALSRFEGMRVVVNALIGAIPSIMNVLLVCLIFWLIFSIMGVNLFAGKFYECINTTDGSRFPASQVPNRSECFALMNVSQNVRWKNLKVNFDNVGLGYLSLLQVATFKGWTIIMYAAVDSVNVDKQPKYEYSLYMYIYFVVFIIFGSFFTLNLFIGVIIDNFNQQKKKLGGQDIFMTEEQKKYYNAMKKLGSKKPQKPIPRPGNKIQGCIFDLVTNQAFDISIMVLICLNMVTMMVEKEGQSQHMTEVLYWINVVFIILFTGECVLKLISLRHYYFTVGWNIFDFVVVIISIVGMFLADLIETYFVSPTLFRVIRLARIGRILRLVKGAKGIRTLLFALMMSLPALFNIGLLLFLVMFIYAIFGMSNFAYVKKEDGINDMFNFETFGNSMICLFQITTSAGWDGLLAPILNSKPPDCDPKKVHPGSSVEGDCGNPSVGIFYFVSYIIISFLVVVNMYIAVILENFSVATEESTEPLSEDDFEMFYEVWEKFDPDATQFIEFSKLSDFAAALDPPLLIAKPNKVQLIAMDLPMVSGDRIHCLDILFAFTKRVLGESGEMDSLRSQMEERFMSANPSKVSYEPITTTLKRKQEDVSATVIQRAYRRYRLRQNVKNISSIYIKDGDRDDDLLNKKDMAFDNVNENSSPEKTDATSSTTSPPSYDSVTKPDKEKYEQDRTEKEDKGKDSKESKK

Test [2] concerns the target T1, hNav1.7. Briefly: Tritiated compound binding to membranes from cells heterologously expressing hNav1.7 and the β1 subunit (Nav1.7 LBA). To be noted: competitive binding vs [3H]compound, membranes with hNav1.7 and β1 subunit; read-out: Nav1.7 LBA EVO IC50. As for the experimental part: Example 93A. Tritiated Compound Binding to Membranes Isolated from Cells that Heterologously Express hNav1.7 and the β1 Subunit
Preparation of membranes containing recombinantly expressed sodium channels: Frozen recombinant cell pellets are thawed on ice and diluted to 4 times the cell pellet weight with ice cold 50 mM Tris HCl, pH 7.4 buffer. The cell suspensions are homogenized on ice using a motorized glass dounce homogeniser. Homogenates are further diluted 8.4 times with ice cold 50 mM Tris HCl, pH 7.4 buffer and then centrifuged at 200×g at 4° C. for 15 minutes. The supernatants are collected and centrifuged at 10000×g at 4° C. for 50 min. The pellets are then re-suspended in 100 mM NaCl, 20 mM Tris HCl, pH 7.4 buffer containing 1% v/v protease inhibitors (Calbiochem) and re-homogenized on ice. The homogenized membranes are then processed through a syringe equipped with a 26 gauge needle. Protein concentrations arer determined by Bradford Assay and the membranes are stored at −80° C.
Saturation experiments. A competitive NaV1.7 inhibitor having a methyl group is tritiated. Three tritiums are incorporated in place of methyl hydrogens to generate [^3H]compound. Binding of this radioligand is performed in 5 mL borosilicate glass test tubes at room temperature. Binding is initiated by adding membranes to increasing concentrations of [^3H]compound in 100 mM NaCl, 20 mM Tris HCl, pH 7.4 buffer containing 0.01% w/v bovine serum albumin (BSA) for 18 h. Non-specific binding is determined in the presence of 1 μM unlabeled compound. After 18 h, the reactants are filtered through GF/C glass fiber filters presoaked in 0.5% w/v polyethylene imine. Filters are washed with 15 mL ice cold 100 mM NaCl, 20 mM Tris HCl, pH7.4 buffer containing 0.25% BSA to separate bound from free ligand. [^3H]compound bound to filters is quantified by liquid scintillation counting.
Binding reactions are performed in 96-well polypropylene plates at room temperature for 18 h. In 360 μL, membranes are incubated with […] [^3H]compound and increasing concentrations of Test Compound. Non-specific binding is defined in the presence of 1 μM unlabeled compound. Reactions are transferred and filtered through 96-well glass fiber/C filter plates presoaked with 0.5% polyethylene imine. The filtered reactions are washed 5 times with 200 μL ice cold buffer containing 0.25% BSA. Bound radioactivity is determined by liquid scintillation counting.
Data Analysis: For saturation experiments, non-specific binding is subtracted from total binding to provide specific binding and these values are recalculated in terms of pmol ligand bound per mg protein. Saturation curves are constructed and dissociation constants are calculated using the single site ligand binding model: Beq=(Bmax*X)/(X+Kd), where Beq is the amount of ligand bound at equilibrium, Bmax is the maximum receptor density, Kd is the dissociation constant for the ligand, and X is the free ligand concentration. For competition studies percent inhibition is determined and IC50 values are calculated using a 4 parameter logistic model (% inhibition=(A+((B−A)/(1+((x/C)^D)))) using XLfit, where A and B are the maximal and minimum inhibition respectively, C is the IC50 concentration and D is the (Hill) slope.
Example 93B. Tritiated Compound Binding to Membranes Isolated from Cells that Heterologous Express hNav1.7 and the β1 Subunit
Following the procedure described in Example 93A, and making modifications as required to: centrifuge supernatants at 100000×g instead of 10000×g; re-suspend pellets in a buffer containing 0.01% BSA in addition to 100 mM NaCl, 20 mM Tris HCl, pH 7.4 buffer, and 1% v/v proteasome inhibitors; and storing membranes at −80° C. in single use aliquots instead of pooled. […]
Target sequence in this assay (Q15858 whole entry, looked up): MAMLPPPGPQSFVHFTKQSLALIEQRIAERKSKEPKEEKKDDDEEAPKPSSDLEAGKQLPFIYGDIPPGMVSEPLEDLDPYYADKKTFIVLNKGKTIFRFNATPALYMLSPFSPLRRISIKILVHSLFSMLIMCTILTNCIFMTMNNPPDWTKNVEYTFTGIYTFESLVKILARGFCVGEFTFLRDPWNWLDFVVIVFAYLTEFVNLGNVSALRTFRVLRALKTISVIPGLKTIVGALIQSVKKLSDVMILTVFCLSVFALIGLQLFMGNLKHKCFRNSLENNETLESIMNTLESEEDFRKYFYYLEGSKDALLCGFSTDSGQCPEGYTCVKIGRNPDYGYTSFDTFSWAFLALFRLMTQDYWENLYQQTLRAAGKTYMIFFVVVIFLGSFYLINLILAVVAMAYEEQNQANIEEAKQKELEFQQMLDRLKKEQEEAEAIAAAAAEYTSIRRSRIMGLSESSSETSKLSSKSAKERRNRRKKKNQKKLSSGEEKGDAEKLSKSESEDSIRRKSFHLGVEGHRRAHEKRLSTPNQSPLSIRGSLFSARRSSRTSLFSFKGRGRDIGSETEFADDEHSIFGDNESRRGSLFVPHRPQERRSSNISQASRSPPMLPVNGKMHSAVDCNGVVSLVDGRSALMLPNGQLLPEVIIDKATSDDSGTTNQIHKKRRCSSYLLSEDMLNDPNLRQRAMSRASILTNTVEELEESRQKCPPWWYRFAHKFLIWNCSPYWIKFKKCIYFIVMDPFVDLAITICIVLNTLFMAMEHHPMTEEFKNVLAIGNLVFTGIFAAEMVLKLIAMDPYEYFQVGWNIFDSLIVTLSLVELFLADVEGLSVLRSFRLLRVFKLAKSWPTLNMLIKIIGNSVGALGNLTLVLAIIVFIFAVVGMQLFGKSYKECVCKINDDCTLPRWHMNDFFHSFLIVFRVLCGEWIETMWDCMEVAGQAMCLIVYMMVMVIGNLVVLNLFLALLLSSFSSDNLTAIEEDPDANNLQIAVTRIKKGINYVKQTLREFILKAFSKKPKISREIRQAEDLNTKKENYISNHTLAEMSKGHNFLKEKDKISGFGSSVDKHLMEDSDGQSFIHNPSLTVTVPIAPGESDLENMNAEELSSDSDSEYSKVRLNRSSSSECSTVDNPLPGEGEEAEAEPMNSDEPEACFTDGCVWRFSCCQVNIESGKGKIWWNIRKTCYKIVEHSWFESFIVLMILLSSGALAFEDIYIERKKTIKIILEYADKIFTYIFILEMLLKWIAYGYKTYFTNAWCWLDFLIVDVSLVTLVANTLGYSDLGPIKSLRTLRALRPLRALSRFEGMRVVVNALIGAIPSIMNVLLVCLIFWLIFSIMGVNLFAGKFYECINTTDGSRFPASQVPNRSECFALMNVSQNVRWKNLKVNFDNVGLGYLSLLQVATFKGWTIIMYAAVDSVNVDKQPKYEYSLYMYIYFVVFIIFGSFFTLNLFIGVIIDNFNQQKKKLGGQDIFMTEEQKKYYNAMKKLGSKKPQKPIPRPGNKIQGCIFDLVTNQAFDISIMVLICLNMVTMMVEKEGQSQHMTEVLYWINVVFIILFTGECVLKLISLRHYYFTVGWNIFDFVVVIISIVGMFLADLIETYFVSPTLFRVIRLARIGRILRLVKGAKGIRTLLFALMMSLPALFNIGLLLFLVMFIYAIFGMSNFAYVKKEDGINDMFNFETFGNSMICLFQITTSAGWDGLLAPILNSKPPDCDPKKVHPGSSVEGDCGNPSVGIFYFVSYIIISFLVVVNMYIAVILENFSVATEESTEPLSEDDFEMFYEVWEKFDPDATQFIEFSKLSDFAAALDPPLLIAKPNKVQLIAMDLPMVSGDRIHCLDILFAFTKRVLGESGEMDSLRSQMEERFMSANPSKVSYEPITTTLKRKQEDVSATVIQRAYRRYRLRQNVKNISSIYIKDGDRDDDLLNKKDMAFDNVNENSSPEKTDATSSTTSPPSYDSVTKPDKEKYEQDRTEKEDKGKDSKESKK
Target sequence in this assay (Q07699 whole entry partner, looked up): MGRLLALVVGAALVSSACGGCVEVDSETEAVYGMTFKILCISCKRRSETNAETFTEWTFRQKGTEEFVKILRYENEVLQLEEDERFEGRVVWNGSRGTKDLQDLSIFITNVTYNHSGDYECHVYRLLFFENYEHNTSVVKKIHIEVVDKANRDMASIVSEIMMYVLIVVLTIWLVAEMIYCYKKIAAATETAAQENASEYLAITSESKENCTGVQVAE

Counter-ions that a name gives are not always drawn.

As usually defined, the IC50 is the midpoint of a concentration-inhibition curve. Consider `CN(C)[C@H]1C[C@@](O)(c2cccc(C(F)(F)F)c2)CC[C@@H]1Nc1cc(F)c(S(=O)(=O)Nc2ccncn2)cc1Cl` [Example 35, 5-chloro-4-(((1S,2S,4R)-2-(dimethylamino)-4-hydroxy-4-(3-(trifluoromethyl)phenyl)-cyclohexyl)amino)-2-fluoro-N-(pyrimidin-4-yl)benzenesulfonamide formate], for which the IC50 was determined as 1.92 nM at hNav1.7 [1] and 3.95 nM at hNav1.7 [2].

Turning to `CN(C)[C@H]1C[C@@H](c2cc(C(F)(F)F)cc(C(F)(F)F)c2)CC[C@@H]1Nc1cc(F)c(S(=O)(=O)Nc2ccncn2)cc1F` [Example 13, 4-(((1S,2S,4S)-4-(3,5-bis(trifluoromethyl)phenyl)-2-(dimethylamino)cyclohexyl)amino)-2,5-difluoro-N-(pyrimidin-4-yl)benzenesulfonamide], the values for the IC50 on hNav1.7 [1] and on hNav1.7 [2] were 0.652 nM and 1.36 nM, respectively.

`CN(C)[C@H]1C[C@](O)(c2cccc(C(F)(F)F)c2)CC[C@@H]1Nc1cc(F)c(S(=O)(=O)Nc2ccncn2)cc1Cl` (single isomer, unassigned) [Example 37]: the IC50 at hNav1.7 [1] was 371 nM; on hNav1.7 [2], not below 2000 nM.

For `CN(C)[C@H]1C[C@@H](c2cc(C(F)(F)F)cc(C(F)(F)F)c2)CC[C@@H]1Nc1cc(F)c(S(=O)(=O)Nc2ccncn2)cc1Cl` [Example 12, 4-(((1S,2S,4S)-4-(3,5-bis(trifluoromethyl)phenyl)-2-(dimethylamino)cyclohexyl)amino)-5-chloro-2-fluoro-N-(pyrimidin-4-yl)benzenesulfonamide], the IC50 at hNav1.7 [1] came to 0.531 nM; on hNav1.7 [2] it was 0.473 nM.

Regarding `CN(C)[C@H]1CN(S(=O)(=O)c2cccc(C(F)(F)F)c2)CC[C@@H]1Nc1cc(F)c(S(=O)(=O)Nc2ccncn2)cc1Cl` [Example 73, 5-Chloro-4-(((3S,4S)-3-(dimethylamino)-1-((3-(trifluoromethyl)phenyl)sulfonyl)piperidin-4-yl)amino)-2-fluoro-N-(pyrimidin-4-yl)benzenesulfonamide formate], the results for the IC50 at hNav1.7 [1] and at hNav1.7 [2] were 3.34 nM and 82.3 nM, respectively.

As for `CN(C)[C@H]1C[C@@H](c2cccc(C3(C(F)(F)F)CC3)c2)CC[C@@H]1Nc1cc(F)c(S(=O)(=O)Nc2ccncn2)cc1Cl` [Example 18, 5-chloro-4-(((1S,2S,4S)-2-(dimethylamino)-4-(3-(1-(trifluoromethyl)cyclopropyl)phenyl)-cyclohexyl)amino)-2-fluoro-N-(pyrimidin-4-yl)benzenesulfonamide], the IC50 on hNav1.7 [1] was determined as 0.263 nM; on hNav1.7 [2] it was 0.67 nM.

Turning to `CN(C)[C@@H]1C[C@H](c2ccccc2C(F)(F)F)CC[C@H]1Nc1cc(F)c(S(=O)(=O)Nc2ccncn2)cc1Cl` (single isomer, unassigned) [Example 78], the values for the IC50 on hNav1.7 [1] and at hNav1.7 [2] were 1.37 nM and 12.2 nM, respectively.

With `CN(C)[C@H]1C[C@@H](c2cccc(OC3CC3)c2)CC[C@@H]1Nc1cc(F)c(S(=O)(=O)Nc2ccncn2)cc1Cl` [Example 43], the values for the IC50 at hNav1.7 [1] and on hNav1.7 [2] were 1.12 nM and 7 nM, respectively.

With `CN(CCO)[C@H]1C[C@@H](c2cccc(C(F)(F)F)c2)CC[C@@H]1Nc1cc(F)c(S(=O)(=O)Nc2ccncn2)cc1Cl` [Example 41, 5-chloro-2-fluoro-4-(((1S,2S,4S)-2-((2-hydroxyethyl)(methyl)amino)-4-(3-(trifluoromethyl)-phenyl)cyclohexyl)amino)-N-(pyrimidin-4-yl)benzenesulfonamide], the IC50 at hNav1.7 [1] came to 0.534 nM; at hNav1.7 [2] it was 0.623 nM.

Regarding `CC(C)[C@H](N)C(=O)N(C)[C@H]1C[C@@H](c2cccc(C(F)(F)F)c2)CC[C@@H]1Nc1cc(F)c(S(=O)(=O)Nc2ccncn2)cc1Cl` [Example 31, (S)-2-amino-N-((1S,2S,5S)-2-((2-chloro-5-fluoro-4-(N-(pyrimidin-4-yl)sulfamoyl)-phenyl)amino)-5-(3-(trifluoromethyl)phenyl)cyclohexyl)-N,3-dimethylbutanamide formate], the IC50 at hNav1.7 [1] was 0.462 nM; at hNav1.7 [2] it was 2.78 nM.

With `CNCCN(C)[C@H]1C[C@@H](c2cccc(C(F)(F)F)c2)CC[C@@H]1Oc1cc(F)c(S(=O)(=O)Nc2ccncn2)cc1Cl` [Example 69, 5-chloro-2-fluoro-4-(((1S,2S,4S)-2-(methyl(2-(methylamino)ethyl)amino)-4-(3-(trifluoromethyl)phenyl)cyclohexyl)oxy)-N-(pyrimidin-4-yl)benzenesulfonamide formate], the results for the IC50 at hNav1.7 [1] and on hNav1.7 [2] were 0.173 nM and 0.474 nM, respectively.

`CN(C)[C@H]1C[C@@H](c2cccc(C3CCOCC3)c2)CC[C@@H]1Oc1cc(F)c(S(=O)(=O)Nc2ccncn2)cc1Cl` [Example 83]: the IC50 on hNav1.7 [1] was 6.36 nM; at hNav1.7 [2], 38.6 nM.

For the molecule `CN(C)[C@H]1C[C@@H](c2cc(F)cc(Cl)c2)CC[C@@H]1Nc1cc(F)c(S(=O)(=O)Nc2ccncn2)cc1Cl` [Example 25, 5-chloro-4-(((1S,2S,4S)-4-(3-chloro-5-fluorophenyl)-2-(dimethylamino)cyclohexyl)amino)-2-fluoro-N-(pyrimidin-4-yl)benzenesulfonamide], the half-maximal inhibitory concentration (IC50) at hNav1.7 [1] turned out to be 2.31 nM; on hNav1.7 [2], 3.02 nM.

As to `CN(C)[C@H]1C[C@@H](c2cccc(-c3cnn(C)c3)c2)CC[C@@H]1Nc1cc(F)c(S(=O)(=O)Nc2ccncn2)cc1Cl` [Example 22], the figures for the concentration for half-maximal inhibition (IC50) on hNav1.7 [1] and on hNav1.7 [2] were 19.4 nM and 21.2 nM, respectively.

Consider `O=C1COc2cc(S(=O)(=O)Nc3ccncn3)c(F)cc2N1[C@H]1CC[C@H](c2cccc(C(F)(F)F)c2)C[C@@H]1N1CCCC1` [Example 49, 6-Fluoro-3-oxo-N-(pyrimidin-4-yl)-4-((1S,2S,4S)-2-(pyrrolidin-1-yl)-4-(3-(trifluoromethyl)-phenyl)cyclohexyl)-3,4-dihydro-2H-benzo[b][1,4]oxazine-7-sulfonamide], for which the IC50 at hNav1.7 [1] was determined as 2.73 nM; on hNav1.7 [2], 23.6 nM.
